Results as given in US5670538A, “Use of prodelphinidins for obtaining medicaments intended for the treatment of arthrosis” (Laboratoires Dolisos, priority 1992, dated 1997).

System: human articular chondrocytes
Test: Radioimmunoassay of type II collagen (coll. II) produced in tridimensional culture of human chondrocytes
Format: cell-based
Settings: for activity at 1 µg/mL / activity at 10 µg/mL / activity at 100 µg/mL: Homo sapiens, Chondrocyte, 288 h, control = 100, read-out: Cumulative release of coll.II over 12 days, %; for Type II collagen in the culture media, effect in words / Collagen II in the clusters, effect in words: 10 and 100 μg/ml; for Coll. II in the clusters / Collagen II in the clusters, effect in words: experiment 397
From the text: The model used for testing the proanthocyanidols, namely the tridimensional culture of human chondrocytes allows chondrorepair to be quantified by the production of matrix substances: type II collagen, proteoglycans, and chondroresorption by the reduction in the levels of prostaglandin E2 and of OH° and O°2 type free radicals produced.
1. Tridimensional culture of human chondrocytes
The technique used has been described in detail (Bassleer et al., 1986).
Briefly, human articular chondrocytes are cultivated in DMEM (Dulbecco's Modification of Eagle's Medium--ICN--Gand, Belgium) with either Ultroser G 1% (GIBCO, Gand, Belgium) or 10% of foetal calf serum (ICN--Gand--Belgium), and 50 μg of ascorbic acid/ml added to it. The cartilage originates from the apparently normal zone of heads of human femur suffering from arthrosis, immediately after an operation carried out to insert a total hip prosthesis; it can also originate from the head of a healthy femur, but which has undergone a traumatism and has had to be replaced. This cartilage is then digested by clostridial collagenase 1 mg/ml (Boehringer-Mannheim, Germany) in a buffer (NaCl 120 mM, CaCl2 1 mM, KCl 5 mM, KH2 PO4 1 mM, NaHCO3 25 mM, glucose 2 mM and Hepes 30 mM, pH 7.4) for 24 hours. After 6 successive washings and centrifugations, the chondrocytes, isolated from their matrix, are cultured in flasks (10^6 cells/2 ml of culture medium) placed on a gyrator (10 rpm). The cultures are kept at 37° C. in an atmosphere of air 95%-CO2 5% (Bassleer et al., 1986). Cultivated under these conditions, after 4 to 5 days the chondrocytes form a tridimensional cluster in each flask. These clusters, which at first have a flocculent appearance, then tend to condense during the culture. After two weeks, their diameter is, in general, from 1 to 2 mm.
The fresh weight of the clusters increases with the duration of the culture, above all during the few first days.
3. Radioimmunoassay of type II collagen (coll. II)
The method for the radioimmunoassay of coll. II has been described in detail (Henrotin et al., 1990). The coll. II is extracted from human articular cartilage according to the technique described by Herbage et al. (1977). The antiserum against coll. II was obtained from rabbits according to the technique of Vaitukaitis et al. (1971).
The assay is carried out by sequential saturation. In the first instance, the radioimmunoassay is carried out in a 0.3 ml volume consisting of 0.2 ml of incubation buffer (PBS-50 mM PO4, 300 mM NaCl, 5 g/l BSA (W/V), 6.7 mM sodium azide, pH 7.4) containing the reference coll. II (0.5 to 500 ng) or the sample to be assayed and 0.1 ml of anti-coll. II antiserum from guinea pigs diluted to 1/5000 (24 hours at 4° C.). In the second instance, 0.1 ml of ^125 I-coll. II tracer labelled according to the iodogenic technique (Salacynski et al., 1979 and diluted so as to obtain 20,000 cpm/0.1 ml) is added. After 24 hours at 4° C., the collagen-antibody complexes are separated from the free radioactive coll. II by the double antibody system (Franchimont et al. 1983). Sequential saturation gives a sensitivity of 3 ng/tube. The accuracy of the method is 10%. The coefficients of the intra- and inter assay variation are 10% and 20% respectively.
The assay is specific to human articular type II collagen.
No cross reaction is obtained with bovine collagen of type I, III or IV.
The culture media are stored at -20° C. in the presence of enzymatic inhibitors (Oegema et al., 1975). These media are assayed by the radio immunological method without any treatment beforehand. The chondrocyte clusters are washed and dissociated with ultrasonics according to the method described for the assay of the PGs. After centrifugation (1500 rpm, 10 minutes), the residue is extracted using 500 mM acetic acid under agitation for 24 hours at 4° C. The supernatant of the homogenate and the extract of the residue are mixed together and assayed after equilibration at pH 7.4 using 4M NaOH.
The recovery of coll. […]

[1] = 1% Ultroser G, culture time 0-4 days, 1 μg/ml
[2] = 1% Ultroser G, culture time 0-4 days, 10 μg/ml
[3] = 1% Ultroser G, culture time 0-4 days, 100 μg/ml
[4] = 1% Ultroser G, culture time 4-8 days, 1 μg/ml
[5] = 1% Ultroser G, culture time 4-8 days, 10 μg/ml
[6] = 1% Ultroser G, culture time 4-8 days, 100 μg/ml
[7] = 1% Ultroser G, culture time 8-12 days, 1 μg/ml
[8] = 1% Ultroser G, culture time 8-12 days, 10 μg/ml
[9] = 1% Ultroser G, culture time 8-12 days, 100 μg/ml
[10] = foetal calf serum, Table 18, 0-4 days, 10 μg/ml
[11] = foetal calf serum, Table 18, 0-4 days, 100 μg/ml
[12] = foetal calf serum, Table 18, 4-8 days, 10 μg/ml
[13] = foetal calf serum, Table 18, 4-8 days, 100 μg/ml
[14] = foetal calf serum, Table 19, 0-4 days, 10 μg/ml
[15] = foetal calf serum, Table 19, 0-4 days, 100 μg/ml
[16] = foetal calf serum, Table 19, 4-8 days, 10 μg/ml
[17] = foetal calf serum, Table 19, 4-8 days, 100 μg/ml
[18] = foetal calf serum, 4-8 days, 10 μg/ml
[19] = foetal calf serum, 4-8 days, 100 μg/ml

Oc1cc(O)c2c(c1)O[C@H](c1cc(O)c(O)c(O)c1)[C@@H](O)[C@@H]2c1c(O)cc(O)c2c1O[C@H](c1cc(O)c(O)c(O)c1)[C@H](O)C2 [Substance Ia, GC-(4 alpha→8) EGC]
Average concentrations (m ± SD) of type II collagen in the clusters of chondrocytes at the end of 12 days of culture (1% Ultroser G, 1 μg/ml): 105 ± 13 ng per μg of DNA | Cumulative release of coll.II over 12 days, Abs (1% Ultroser G, 1 μg/ml): 482 ng/μg DNA/12 days | Average concentrations (m ± SD) of type II collagen in the clusters of chondrocytes at the end of 12 days of culture (1% Ultroser G, 10 μg/ml): 165 ± 21 ng per μg of DNA | Cumulative release of coll.II over 12 days, Abs (1% Ultroser G, 10 μg/ml): 787 ng/μg DNA/12 days | Average concentrations (m ± SD) of type II collagen in the clusters of chondrocytes at the end of 12 days of culture (1% Ultroser G, 100 μg/ml): 175 ± 19 ng per μg of DNA | Cumulative release of coll.II over 12 days, Abs (1% Ultroser G, 100 μg/ml): 962 ng/μg DNA/12 days | Coll. II released in the culture medium [1]: 233 ± 25 ng/μg DNA/96 h | Coll. II released in the culture medium [2]: 301 ± 52 ng/μg DNA/96 h | Coll. II released in the culture medium [3]: 462 ± 51 ng/μg DNA/96 h | Coll. II released in the culture medium [4]: 147 ± 19 ng/μg DNA/96 h | Coll. II released in the culture medium [5]: 259 ± 22 ng/μg DNA/96 h | Coll. II released in the culture medium [6]: 311 ± 41 ng/μg DNA/96 h | Coll. II released in the culture medium [7]: 102.2 ± 10.96 ng/μg DNA/96 h | Coll. II released in the culture medium [8]: 147 ± 21 ng/μg DNA/96 h | Coll. II released in the culture medium [9]: 109 ± 23 ng/μg DNA/96 h | activity at 1 µg/mL (1% Ultroser G, 1 μg/ml): 102% | activity at 10 µg/mL (1% Ultroser G, 10 μg/ml): 166% | activity at 100 µg/mL (1% Ultroser G, 100 μg/ml): 202% | Type II collagen in the culture media, effect in words (foetal calf serum): increases | Coll. II released in the culture medium [10]: 44.3 ± 2.30 ng/μg DNA/96 H | Coll. II released in the culture medium [11]: 77.0 ± 15.58 ng/μg DNA/96 H | Coll. II released in the culture medium [12]: 34.0 ± 3.11 ng/μg DNA/96 H | Coll. II released in the culture medium [13]: 47.2 ± 5.19 ng/μg DNA/96 H | Coll. II released in the culture medium [14]: 37.4 ± 1.98 ng/μg DNA/96 H | Coll. II released in the culture medium [15]: 44.2 ± 11.6 ng/μg DNA/96 H | Coll. II released in the culture medium [16]: 25.3 ± 2.20 ng/μg DNA/96 H | Coll. II released in the culture medium [17]: 38.2 ± 5.71 ng/μg DNA/96 H | Coll. II in the clusters [18]: 78.8 ± 10.5 ng/μg DNA | Coll. II in the clusters [19]: 114.7 ± 10.55 ng/μg DNA | Collagen II in the clusters, effect in words (foetal calf serum): An increase in collagen II is observed

Oc1cc(O)c2c(c1)O[C@H](c1cc(O)c(O)c(O)c1)[C@@H](O)[C@@H]2c1c(O)cc(O)c2c1O[C@H](c1cc(O)c(O)c(O)c1)[C@@H](O)C2 [Substance Ib, GC-(4 alpha→8) GC]
Average concentrations (m ± SD) of type II collagen in the clusters of chondrocytes at the end of 12 days of culture (1% Ultroser G, 1 μg/ml): 98 ± 9 ng per μg of DNA | Cumulative release of coll.II over 12 days, Abs (1% Ultroser G, 1 μg/ml): 394 ng/μg DNA/12 days | Average concentrations (m ± SD) of type II collagen in the clusters of chondrocytes at the end of 12 days of culture (1% Ultroser G, 10 μg/ml): 121 ± 10 ng per μg of DNA | Cumulative release of coll.II over 12 days, Abs (1% Ultroser G, 10 μg/ml): 572 ng/μg DNA/12 days | Average concentrations (m ± SD) of type II collagen in the clusters of chondrocytes at the end of 12 days of culture (1% Ultroser G, 100 μg/ml): 158 ± 16 ng per μg of DNA | Cumulative release of coll.II over 12 days, Abs (1% Ultroser G, 100 μg/ml): 728 ng/μg DNA/12 days | Coll. II released in the culture medium [1]: 222 ± 26 ng/μg DNA/96 h | Coll. II released in the culture medium [2]: 322 ± 33 ng/μg DNA/96 h | Coll. II released in the culture medium [3]: 392 ± 46 ng/μg DNA/96 h | Coll. II released in the culture medium [4]: 112 ± 19 ng/μg DNA/96 h | Coll. II released in the culture medium [5]: 158 ± 14 ng/μg DNA/96 h | Coll. II released in the culture medium [6]: 190 ± 22 ng/μg DNA/96 h | Coll. II released in the culture medium [7]: 59.9 ± 0.6 ng/μg DNA/96 h | Coll. II released in the culture medium [8]: 91.7 ± 6.1 ng/μg DNA/96 h | Coll. II released in the culture medium [9]: 137.7 ± 13.4 ng/μg DNA/96 h | activity at 1 µg/mL (1% Ultroser G, 1 μg/ml): 107% | activity at 10 µg/mL (1% Ultroser G, 10 μg/ml): 155% | activity at 100 µg/mL (1% Ultroser G, 100 μg/ml): 197% | Type II collagen in the culture media, effect in words (foetal calf serum): increases | Coll. II released in the culture medium [10]: 41.4 ± 0.51 ng/μg DNA/96 H | Coll. II released in the culture medium [11]: 81.1 ± 20.2 ng/μg DNA/96 H | Coll. II released in the culture medium [12]: 33.3 ± 4.61 ng/μg DNA/96 H | Coll. II released in the culture medium [13]: 55.0 ± 17.21 ng/μg DNA/96 H | Coll. II released in the culture medium [14]: 38.2 ± 2.60 ng/μg DNA/96 H | Coll. II released in the culture medium [15]: 56.3 ± 12.41 ng/μg DNA/96 H | Coll. II released in the culture medium [16]: 29.6 ± 3.44 ng/μg DNA/96 H | Coll. II released in the culture medium [17]: 46.3 ± 2.61 ng/μg DNA/96 H | Coll. II in the clusters [18]: 81.6 ± 16.00 ng/μg DNA | Coll. II in the clusters [19]: 113.2 ± 18.25 ng/μg DNA | Collagen II in the clusters, effect in words (foetal calf serum): An increase in collagen II is observed
